Tests used:
[1] = tested on: corticospinal tract (CST) of rats crushed at the C4 level; experiment: Corticospinal tract (CST) crush at C4 in rats, agonist applied to the lateral ventricle; assay type: in vivo; details: rat
Description: The results are illustrated in Borthwick et al., 2016.
All animal experiments were carried out under UK home office regulations. Dorsal column lesions were performed on adult male rats as previously described (see, e.g., Bradbury et al., 2002). […] The pumps were placed subcutaneously and connected to a brain infusion catheter (Alzet™), which was inserted into the lateral ventricle (Bregma coordinates: rostrocaudal: −0.8 mm, mediolateral: −1.5 mm and dorsoventral: −4.5 mm). […] The dose was based previous in vivo studies on activation of RARα and RARβ signalling in the adult rat brain (see, e.g., Goncalves et al., 2009). Animals which underwent behavioural studies and subsequent tracing (n=6 per treatment) were kept for six weeks before being sacrificed with a lethal injection of pentobarbital and transcardially perfused with 4% PFA. Dissected tissue (cervical and lumbar spinal cord) was processed for immunofluorescence.
Descendent corticospinal tract axons were anterogradely traced after the dorsal column crush was performed by injected BDA (10% in PBS, Mw10K from Molecular Probes) into the motor cortex as previously described (see, e.g., Yip et al., 2006). Six injections were done in the right cortex (0.5 μL of BDA/injection point). Animals (n=6 per treatment) were perfused and the spinal cord was transferred to PBS (plus 0.1% sodium azide) and embedded in gelatin (10%, 300 bloom; Sigma, Poole, UK). Gelatin blocks were hardened in 4% paraformaldehyde, and 40 μm free-floating serial transverse sections were cut on a vibratome (Leica, Nussloch, Germany) and collected in 24-well plates containing PBS (plus 0.1% sodium azide).
BDA was detected using the tyramide amplification kit (Perkin-Elmer) coupled with extra-avidin-FITC (Amersham Pharmacia Biotech, UK, 1:500). All BDA-labelled fibres observed within a 1-mm square grid were counted at measured intervals from 5 mm above to 5 mm below the lesion site by an experimenter, blinded to treatment.
CST neurons were labelled by retrograde tracing injecting 2 μL of 5% Fluorogold (FG, Molecular Probes) 2 mm deep into the cervical spinal cord (C3-C4) at a rate of 0.5 μL/minute (n=3 rats per group). In sham animals, FG was injected 0.5 mm bilateral to the medial line of spinal cord (1 μL per side), and in lesioned animals FG (2 μL) was injected into the injury. After 14 days, the cortices were fixed for 2 hours in 4% paraformaldehyde (PFA), embedded in OCT compound and stored frozen. Sagittal sections (12 μm) were cut and 4 sequential slides containing 2 sections from lateral 3.4-3.9 mm were taken for analysis (see, e.g., Paxinos and Watson, 2002).
Immunohistochemistry was carried out using anti-rabbit phospho-Akt (Cell Signalling technology, dilution of 1:100). Secondary antibody used was anti-rabbit Cy3 conjugated (Jackson, used at 1:1000). Images were captured at 100× magnification using a Roperscientific digital camera.
The behavioural tests were carried out as previously described (see, e.g., Bradbury et al., 2002). Rats (n=6 per treatment group) were first trained for two weeks before surgery to perform grid walk and beam walk; they were then tested by an observer blinded to the experimental treatment once a week for five weeks after lesion.

[2] = tested on: cortical explants; experiment: Neurite outgrowth from cultured cortex of treated lesioned animals; assay type: cell-based, rat; details: cortex of lesioned rats treated in vivo; vehicle: did not grow
Description: When pieces of cortex from these RARβ agonist treated animals were cultured, neurite outgrowth was observed, in contrast to cortex from control lesioned animals.
(§1) Cerebellar neurons isolated from post-natal day 3 rat pups were cultured over monolayers of parental 3T3 cells in control media, or media supplemented with a recombinant MAG-Fc chimera (R&D Systems) used at a final concentration of 20 μg/mL MAG-Fc. The monolayers were established for 24 hours prior to addition of the neurons and the co-cultures were maintained for approximately 21 hours. Following careful fixation with 4% paraformaldehyde, the neurons were immuno-stained with a GAP-43 antibody (from Graham Wilkin, Imperial College), dilution of 1:500, and the mean length of the longest neurite per cell was measured for approximately 120-150 neurons as previously described (see, e.g., Williams et al., 2005). DRG and cortical explants were obtained from adult rats, they were cultured in cellogen as previously described (see, e.g., Corcoran and Maden, 1999). Three explants per treatment were used. Neurite outgrowth was assessed 3 days later by immunohistochemistry with NF200 (Sigma, dilution of 1:200). The average lengths of the neurites were measured using image pro plus software. Media consisted of DMEM-F12 (Invitrogen) containing N2 (Invitrogen) supplemented with glucose (33 mM) and glutamine (2 mM).

[3] = tested on: rats with severed and re-implanted sensory roots at the level of the left forelimb; experiment: Sensory roots of four DRG severed and re-implanted into the spinal cord, sticky tape tests; assay type: in vivo; details: rat, after 5 weeks, 1 mg/kg three times a week
Description: In another example of nerve injury, the four sensory roots from each of four DRG at the level of the left forelimb were severed and re-implanted into the spinal cord.
The results are illustrated in Borthwick et al., 2016. […] Rats were treated with 1 mg/kg of the test compound or vehicle two days after lesion, and then three times a week for the period of the experiment. Error bars show SEM. ***P<0.001, students t test, n=3-4 rats for each treatment group. At weeks 3, 4, and 5, there was significant difference between the rats treated with RARβ agonist as compared to rats treated with other retinoid agonists and vehicle.

[4] = tested on: cerebellar neurons; experiment: Neurite outgrowth assay, cerebellar neurons in the presence of myelin / MAG; assay type: cell-based, rat; details: cerebellar neurons grown in the presence of myelin
Description: as §1

[5] = tested on: corticospinal tract (CST) of rats crushed at the C4 level; details: in vivo; Agudo et al., 2010; cited from earlier work
[6] = i.c.v. 180 ng/kg/day for 14 days

In the case of `COc1ccc(-c2ccc3cc(C(=O)O)ccc3c2)cc1C1(C)CCCCC1` [CD2019, 6-(4-methoxy-3-(1-methylcyclohexyl)phenyl)-2-naphthalenecarboxylic acid], the “Behavioural tests (grid and beam task)” value ([1]; after 5 weeks) is reported as “performed as well as non-lesioned animals”, the “BDA-labelled CST axons crossing the lesion site” value ([1]; after 5 weeks, vs vehicle (no axons across)) is reported as “many axons were observed crossing the injury site” and the “Time to functional recovery, beam task” value [1, 6] is reported as 2 weeks post lesion. For the same compound, the “Time to functional recovery, grid task” value [1, 6] was 4 weeks post lesion, the “RARβ2 expression in the CST neuronal cell bodies” value ([1]; lateral ventricle for 2 weeks) was “upregulation of RARβ2” and the “Axon growth from cultured adult cortex of treated animals” value [2] was “did grow”. For the same compound, the “Behavioural test (sticky tape)” value [3] was “performed as well as non-lesioned animals”, the Neurite outgrowth [4] was “causes the outgrowth of neurites” and the “Phospho AKT in the injured CST neurons” value [5] was “induced”.
